Values of other authors, collected in patent US20220062479A1, “Disinfection Bomb” (priority 2020, published 2022).

How the values were obtained:
Streptococcus pyogenes = conditions: by way of background
Pseudomonas aeruginosa = conditions: it has been shown
E. coli = conditions: it has been shown
Staphylococcus aureus = conditions: by way of background

CCO [ethanol]
contact time to kill Streptococcus pyogenes (Streptococcus pyogenes): at least 10 seconds
contact time that allows the ethanol to kill Pseudomonas aeruginosa (Pseudomonas aeruginosa): 10 s
contact time that allows the ethanol to kill E. coli (E. coli): 10 s
contact time to kill Staphylococcus aureus (Staphylococcus aureus): at least 10 seconds
